Measurements from BindingDB's records for doi:10.1021/cc1000488 (German University In Cairo, 2010).

Target: Mitogen-activated protein kinase 14 (Homo sapiens, UniProt Q16539)
Assay: P38 MAP Kinase Assay
Conditions: pH 7.5; 37 °C
Source text: Kinase assay using p38alpha MAP.

Mitogen-activated protein kinase 14, sequence (Q16539 whole entry): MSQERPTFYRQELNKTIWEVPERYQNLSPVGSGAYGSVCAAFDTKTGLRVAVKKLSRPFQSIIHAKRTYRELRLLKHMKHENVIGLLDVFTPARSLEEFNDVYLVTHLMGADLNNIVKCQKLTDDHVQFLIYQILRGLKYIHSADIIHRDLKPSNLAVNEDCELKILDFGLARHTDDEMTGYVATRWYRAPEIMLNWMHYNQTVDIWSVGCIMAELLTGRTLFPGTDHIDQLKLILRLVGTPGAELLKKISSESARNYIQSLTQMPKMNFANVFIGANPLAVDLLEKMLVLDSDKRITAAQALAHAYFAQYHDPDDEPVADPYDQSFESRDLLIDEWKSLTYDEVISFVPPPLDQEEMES

Question: How did the IC50 turn out when `COc1cc(-c2cc(-c3ccc(Br)cc3)nc(N)c2C#N)cc(OC)c1OC` [MAP Kinase Inhibitor, 1] was run?
Answer: 2000 nM

Question: With `Cc1ccc(-c2cc(-c3ccc(Br)cc3)nc(N)c2C#N)o1` [MAP Kinase Inhibitor, 2] as the compound, how does the IC50 read?
Answer: 70 nM

Question: For `N#Cc1c(-c2cccnc2)cc(-c2ccc(Br)cc2)nc1N` [MAP Kinase Inhibitor, 3], which IC50 is on record?
Answer: 3700 nM

Question: Which IC50 does the source give for `N#Cc1c(-c2ccc(Cl)c(Cl)c2)cc(-c2ccc(Br)cc2)nc1N` [MAP Kinase Inhibitor, 4] here?
Answer: 3680 nM

Question: With `N#Cc1c(-c2c[nH]c3ccccc23)cc(-c2ccc(Br)cc2)nc1N` [MAP Kinase Inhibitor, 6] as the compound, how does the IC50 read?
Answer: 2650 nM

Question: For `N#Cc1c(-c2ccc(Br)cc2)cc(-c2ccc(Br)cc2)nc1N` [MAP Kinase Inhibitor, 7], which IC50 is on record?
Answer: 760 nM

Question: How did the IC50 turn out when `COc1cc(-c2cc(-c3ccc(Br)cc3)[nH]c(=O)c2C#N)cc(OC)c1OC` [MAP Kinase Inhibitor, 8] was run?
Answer: 1220 nM

Question: How did the IC50 turn out when `N#Cc1c(-c2ccc(Cl)c(Cl)c2)cc(-c2ccc(Br)cc2)[nH]c1=O` [MAP Kinase Inhibitor, 11] was run?
Answer: 120 nM

Question: How did the IC50 turn out when `N#Cc1c(-c2ccc(Br)cc2)cc(-c2ccc(Br)cc2)[nH]c1=O` [MAP Kinase Inhibitor, 14] was run?
Answer: 4400 nM
